Measured values reported in ChEMBL document CHEMBL1201861, “Genomics of Drug Sensitity in Cancer screening data, Wellcome Trust Sanger Institute”.

What was measured:
Assay in all cases: cells
Assay type in all cases: functional, cell-based
Details in all cases: Homo sapiens
[1] = system: LU-139
Description: SANGER: Inhibition of human LU-139 cell growth in a cell viability assay.

[2] = system: CCRF-CEM;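 note: inhibition of CCRF-CEM cell growth, measured by a cell viability assay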
Description: SANGER: Inhibition of human CCRF-CEM cell growth in a cell viability assay.

[3] = system: RKO;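 note: growth inhibition of human RKO cells, read out with a cell viability assay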
Description: SANGER: Inhibition of human RKO cell growth in a cell viability assay.

[4] = system: NB6;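 note: growth inhibition of NB6 cells, read out by a cell viability assay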
Description: SANGER: Inhibition of human NB6 cell growth in a cell viability assay.

[5] = system: OCUB-M;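 note: growth inhibition of the cancer cell line, read out through a cell viability assay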
Description: SANGER: Inhibition of human OCUB-M cell growth in a cell viability assay.

[6] = system: NCI-H1092;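 note: cell growth inhibition measured with a cell viability assay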
Description: SANGER: Inhibition of human NCI-H1092 cell growth in a cell viability assay.

[7] = system: LAN-6;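 note: growth inhibition of LAN-6 cells, determined with a cell viability assay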
Description: SANGER: Inhibition of human LAN-6 cell growth in a cell viability assay.

[8] = system: MMAC-SF;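 note: growth inhibition of human MMAC-SF cells, read out with a cell viability assay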
Description: SANGER: Inhibition of human MMAC-SF cell growth in a cell viability assay.

[9] = system: Ramos-2G6-4C10;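 note: growth inhibition of the cell line, measured by a cell viability read-out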
Description: SANGER: Inhibition of human Ramos-2G6-4C10 cell growth in a cell viability assay.

[10] = system: OVCAR-4;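 note: growth inhibition of human OVCAR-4 cells, measured with a cell viability assay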
Description: SANGER: Inhibition of human OVCAR-4 cell growth in a cell viability assay.

[11] = system: SNU-C2B;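 note: cell viability readout used to measure compound-driven suppression of SNU-C2B cell proliferation, IC50 marking half-maximal growth inhibition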
Description: SANGER: Inhibition of human SNU-C2B cell growth in a cell viability assay.

[12] = system: SK-UT-1;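 note: growth inhibition of SK-UT-1 cells, measured by a cell viability assay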
Description: SANGER: Inhibition of human SK-UT-1 cell growth in a cell viability assay.

[13] = system: NCI-H1304;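 note: growth inhibition of the cancer cell line, measured in a cell viability assay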
Description: SANGER: Inhibition of human NCI-H1304 cell growth in a cell viability assay.

[14] = system: BE-13;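 note: growth inhibition of human BE-13 cells, measured with a cell viability assay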
Description: SANGER: Inhibition of human BE-13 cell growth in a cell viability assay.

[15] = system: NCI-H226;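 note: cell viability read-out used to gauge growth inhibition of the cells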
Description: SANGER: Inhibition of human NCI-H226 cell growth in a cell viability assay.

[16] = system: MLMA;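 note: growth inhibition of MLMA cells (human), determined through a cell viability readout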
Description: SANGER: Inhibition of human MLMA cell growth in a cell viability assay.

[17] = system: TE-9;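 note: cell growth inhibition, measured with a cell viability readout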
Description: SANGER: Inhibition of human TE-9 cell growth in a cell viability assay.

[18] = system: TE-10;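 note: growth inhibition of TE-10 cells, measured by a cell viability assay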
Description: SANGER: Inhibition of human TE-10 cell growth in a cell viability assay.

[19] = system: DB
Description: SANGER: Inhibition of human DB cell growth in a cell viability assay.

[20] = system: RCC10RGB;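 note: growth inhibition of human RCC10RGB cells, read out by a cell viability assay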
Description: SANGER: Inhibition of human RCC10RGB cell growth in a cell viability assay.

[21] = system: DSH1;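 note: growth inhibition of human DSH1 cells, measured with a cell viability readout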
Description: SANGER: Inhibition of human DSH1 cell growth in a cell viability assay.

[22] = system: A101D;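 note: growth inhibition of the cell line, measured with a viability assay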
Description: SANGER: Inhibition of human A101D cell growth in a cell viability assay.

[23] = system: LB771-HNC;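 note: growth inhibition of LB771-HNC human cells, read out with a cell viability assay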
Description: SANGER: Inhibition of human LB771-HNC cell growth in a cell viability assay.

[24] = system: OCI-AML2;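 note: growth inhibition of OCI-AML2 cells, read out with a cell viability assay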
Description: SANGER: Inhibition of human OCI-AML2 cell growth in a cell viability assay.

[25] = system: HT-144
Description: SANGER: Inhibition of human HT-144 cell growth in a cell viability assay.

[26] = system: ES1;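 note: growth inhibition of ES1 cells, read out with a cell viability assay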
Description: SANGER: Inhibition of human ES1 cell growth in a cell viability assay.

[27] = system: BB30-HNC;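 note: growth inhibition of the cultured cell line, read out by a cell viability assay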
Description: SANGER: Inhibition of human BB30-HNC cell growth in a cell viability assay.

[28] = system: SK-PN-DW;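 note: growth inhibition measured with a viability assay on these cells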
Description: SANGER: Inhibition of human SK-PN-DW cell growth in a cell viability assay.

[29] = system: Mo
Description: SANGER: Inhibition of human Mo-T cell growth in a cell viability assay.

[30] = system: CGTH-W-1;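 note: growth inhibition of human CGTH-W-1 cells measured by cell viability assay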
Description: SANGER: Inhibition of human CGTH-W-1 cell growth in a cell viability assay.

[31] = system: UACC-257
Description: SANGER: Inhibition of human UACC-257 cell growth in a cell viability assay.

[32] = system: BT-474
Description: SANGER: Inhibition of human BT-474 cell growth in a cell viability assay.

[33] = system: KARPAS-299
Description: SANGER: Inhibition of human KARPAS-299 cell growth in a cell viability assay.

[34] = system: SF-268;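 note: growth inhibition of SF-268 cells determined with a cell viability assay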
Description: SANGER: Inhibition of human SF268 cell growth in a cell viability assay.

[35] = system: TE-6;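 note: growth inhibition of TE-6 cells, read out with a cell viability assay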
Description: SANGER: Inhibition of human TE-6 cell growth in a cell viability assay.

[36] = system: LXF-289 cell line
Description: SANGER: Inhibition of human LXF-289 cell growth in a cell viability assay.

[37] = system: LS-513
Description: SANGER: Inhibition of human LS-513 cell growth in a cell viability assay.

[38] = system: K562
Description: SANGER: Inhibition of human K-562 cell growth in a cell viability assay.

[39] = system: HT
Description: SANGER: Inhibition of human HT cell growth in a cell viability assay.

[40] = system: LOX IMVI
Description: SANGER: Inhibition of human LOXIMVI cell growth in a cell viability assay.

[41] = system: MFM-223
Description: SANGER: Inhibition of human MFM-223 cell growth in a cell viability assay.

[42] = system: MZ1-PC;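 note: cell viability assay measuring growth inhibition of human MZ1-PC cells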
Description: SANGER: Inhibition of human MZ1-PC cell growth in a cell viability assay.

[43] = system: MC116;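 note: growth inhibition of MC116 cells, read out with a cell viability assay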
Description: SANGER: Inhibition of human MC116 cell growth in a cell viability assay.

[44] = system: 697
Description: SANGER: Inhibition of human 697 cell growth in a cell viability assay.

[45] = system: GR-ST
Description: SANGER: Inhibition of human GR-ST cell growth in a cell viability assay.

[46] = system: SNU-5;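 note: cell viability readout used to measure growth inhibition in human NCI-SNU-5 cells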
Description: SANGER: Inhibition of human NCI-SNU-5 cell growth in a cell viability assay.

[47] = system: NB5;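 note: growth inhibition of NB5 cells, read out as cell viability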
Description: SANGER: Inhibition of human NB5 cell growth in a cell viability assay.

[48] = system: NMC-G1;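 note: growth inhibition of the NMC-G1 cell line, measured with a cell viability read-out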
Description: SANGER: Inhibition of human NMC-G1 cell growth in a cell viability assay.

[49] = system: NH-12;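 note: growth inhibition of NH-12 cells, read out with a cell viability assay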
Description: SANGER: Inhibition of human NH-12 cell growth in a cell viability assay.

[50] = system: NCI-H446;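 note: growth inhibition of NCI-H446 cells determined by a cell viability assay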
Description: SANGER: Inhibition of human NCI-H446 cell growth in a cell viability assay.

[51] = system: 8-MG-BA;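 note: growth inhibition of 8-MG-BA cells, read out with a cell viability assay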
Description: SANGER: Inhibition of human 8-MG-BA cell growth in a cell viability assay.

[52] = system: NCI-H1838;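 note: growth inhibition of NCI-H1838 cells, determined with a cell viability readout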
Description: SANGER: Inhibition of human NCI-H1838 cell growth in a cell viability assay.

[53] = system: KMOE-2;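 note: growth inhibition of human KMOE-2 cells, read out with a cell viability assay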
Description: SANGER: Inhibition of human KMOE-2 cell growth in a cell viability assay.

[54] = system: MZ7-mel;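 note: growth inhibition of human MZ7-mel cells, measured by a cell viability assay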
Description: SANGER: Inhibition of human MZ7-mel cell growth in a cell viability assay.

[55] = system: LC-2-ad;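 note: growth inhibition of human LC-2-ad cells, read out with a cell viability assay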
Description: SANGER: Inhibition of human LC-2-ad cell growth in a cell viability assay.

[56] = system: NCI-H1650;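 note: growth inhibition of human NCI-H1650 cells measured by a cell viability assay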
Description: SANGER: Inhibition of human NCI-H1650 cell growth in a cell viability assay.

[57] = system: LB373-MEL-D;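 note: growth inhibition of the cell line, read out in a cell viability assay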
Description: SANGER: Inhibition of human LB373-MEL-D cell growth in a cell viability assay.

[58] = system: ES7;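 note: growth inhibition of cultured human ES7 cells, read out as cell viability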
Description: SANGER: Inhibition of human ES7 cell growth in a cell viability assay.

[59] = system: TE-8;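 note: growth inhibition of TE-8 cells, measured with a cell viability readout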
Description: SANGER: Inhibition of human TE-8 cell growth in a cell viability assay.

[60] = system: EW-1;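 note: growth inhibition of the human EW-1 cell line, read out by a cell viability assay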
Description: SANGER: Inhibition of human EW-1 cell growth in a cell viability assay.

[61] = system: LB2518-MEL;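 note: growth inhibition of human LB2518-MEL cells, measured with a cell viability assay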
Description: SANGER: Inhibition of human LB2518-MEL cell growth in a cell viability assay.

[62] = system: IA-LM;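 note: cell viability assay measuring growth inhibition of human IA-LM cells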
Description: SANGER: Inhibition of human IA-LM cell growth in a cell viability assay.

[63] = system: RPMI-8226
Description: SANGER: Inhibition of human RPMI-8226 cell growth in a cell viability assay.

[64] = system: NCI-H82;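 note: growth inhibition of NCI-H82 cells, measured with a cell viability readout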
Description: SANGER: Inhibition of human NCI-H82 cell growth in a cell viability assay.

[65] = system: PSN1;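 note: suppression of growth of human PSN1 cells, read out by a cell viability assay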
Description: SANGER: Inhibition of human PSN1 cell growth in a cell viability assay.

[66] = system: HC-1
Description: SANGER: Inhibition of human HC-1 cell growth in a cell viability assay.

**Q.** What does the source list for `Cc1[nH]c(/C=C2\C(=O)Nc3ccc(S(=O)(=O)Cc4c(Cl)cccc4Cl)cc32)c(C)c1C(=O)N1CCC[C@@H]1CN1CCCC1` [PHA-665752]?
**A.** IC50 [1]: > 2 µM; IC50 [2]: > 2000 nM; IC50 [3]: > 2000 nM; IC50 [4]: > 2000 nM; IC50 [5]: > 2000 nM; IC50 [6]: > 2000 nM; IC50 [7]: > 2 µM; IC50 [8]: > 2000 nM; IC50 [9]: > 2000 nM; IC50 [10]: > 2000 nM; IC50 [11]: > 2 µM; IC50 [12]: > 2000 nM; IC50 [13]: > 2 µM; IC50 [14]: > 2000 nM; IC50 [15]: > 2000 nM; IC50 [16]: > 2000 nM; IC50 [17]: > 2000 nM; IC50 [18]: > 2000 nM; IC50 [19]: > 2000 nM; IC50 [20]: > 2000 nM; IC50 [21]: > 2 µM; IC50 [22]: > 2000 nM; IC50 [23]: > 2 µM; IC50 [24]: > 2000 nM; IC50 [25]: > 2000 nM; IC50 [26]: > 2000 nM; IC50 [27]: > 2000 nM; IC50 [28]: > 2000 nM; IC50 [29]: > 2000 nM; IC50 [30]: > 2000 nM; IC50 [31]: > 2 µM; IC50 [32]: > 2000 nM; IC50 [33]: > 2000 nM; IC50 [34]: > 2 µM; IC50 [35]: > 2000 nM; IC50 [36]: > 2 µM; IC50 [37]: > 2000 nM; IC50 [38]: > 2 µM; IC50 [39]: > 2000 nM; IC50 [40]: > 2000 nM; IC50 [41]: > 2000 nM; IC50 [42]: > 2000 nM; IC50 [43]: > 2000 nM; IC50 [44]: > 2000 nM; IC50 [45]: > 2000 nM; IC50 [46]: 0.124 µM; IC50 [47]: > 2000 nM; IC50 [48]: > 2000 nM; IC50 [49]: > 2000 nM; IC50 [50]: > 2 µM; IC50 [51]: > 2000 nM; IC50 [52]: > 2 µM; IC50 [53]: > 2000 nM; IC50 [54]: > 2000 nM; IC50 [55]: > 2000 nM; IC50 [56]: > 2000 nM; IC50 [57]: > 2000 nM; IC50 [58]: > 2000 nM; IC50 [59]: > 2000 nM; IC50 [60]: > 2000 nM; IC50 [61]: > 2 µM; IC50 [62]: > 2000 nM; IC50 [63]: > 2000 nM; IC50 [64]: > 2 µM; IC50 [65]: > 2 µM; IC50 [66]: > 2 µM

**Q.** Which IC50 [1] does the source give for `CC(C)=CC[C@@H](O)C1=CC(=O)c2c(O)ccc(O)c2C1=O` [SHIKONIN] here?
**A.** 6.26 µM

**Q.** What about the IC50 [2] of the same compound?
**A.** 567 nM

**Q.** And the IC50 [3]?
**A.** 270 nM

**Q.** What about the IC50 [4] of the same compound?
**A.** 454 nM

**Q.** And the IC50 [5]?
**A.** 865 nM

**Q.** And the IC50 [6]?
**A.** 1390 nM

**Q.** What about the IC50 [7] of the same compound?
**A.** 3.22 µM

**Q.** What about the IC50 [8] of the same compound?
**A.** 752 nM

**Q.** And the IC50 [9]?
**A.** 315 nM

**Q.** What about the IC50 [10] of the same compound?
**A.** 670 nM

**Q.** And the IC50 [11]?
**A.** > 16 µM

**Q.** What about the IC50 [12] of the same compound?
**A.** < 62.5 nM

**Q.** And the IC50 [13]?
**A.** > 16 µM

**Q.** What about the IC50 [14] of the same compound?
**A.** 1200 nM

**Q.** What about the IC50 [15] of the same compound?
**A.** 645 nM

**Q.** What about the IC50 [16] of the same compound?
**A.** 539 nM

**Q.** What about the IC50 [17] of the same compound?
**A.** 408 nM

**Q.** And the IC50 [18]?
**A.** 986 nM

**Q.** And the IC50 [19]?
**A.** 726 nM

**Q.** What about the IC50 [20] of the same compound?
**A.** 1560 nM

**Q.** What about the IC50 [21] of the same compound?
**A.** 10.6 µM

**Q.** What about the IC50 [22] of the same compound?
**A.** < 62.5 nM

**Q.** And the IC50 [23]?
**A.** > 16 µM

**Q.** What about the IC50 [24] of the same compound?
**A.** 298 nM

**Q.** And the IC50 [25]?
**A.** 561 nM

**Q.** And the IC50 [26]?
**A.** 503 nM

**Q.** What about the IC50 [27] of the same compound?
**A.** 243 nM

**Q.** What about the IC50 [28] of the same compound?
**A.** 36.5 nM

**Q.** What about the IC50 [29] of the same compound?
**A.** 820 nM

**Q.** What about the IC50 [30] of the same compound?
**A.** 500 nM

**Q.** And the IC50 [31]?
**A.** > 16 µM

**Q.** What about the IC50 [32] of the same compound?
**A.** 208 nM

**Q.** And the IC50 [33]?
**A.** 799 nM

**Q.** And the IC50 [34]?
**A.** 5.58 µM

**Q.** What about the IC50 [35] of the same compound?
**A.** 2970 nM

**Q.** And the IC50 [36]?
**A.** 3.27 µM

**Q.** What about the IC50 [37] of the same compound?
**A.** 1480 nM

**Q.** What about the IC50 [38] of the same compound?
**A.** > 16 µM

**Q.** And the IC50 [39]?
**A.** 1090 nM

**Q.** What about the IC50 [40] of the same compound?
**A.** 412 nM

**Q.** And the IC50 [41]?
**A.** 899 nM

**Q.** And the IC50 [42]?
**A.** 19.3 nM

**Q.** And the IC50 [43]?
**A.** 1790 nM

**Q.** And the IC50 [44]?
**A.** 876 nM

**Q.** What about the IC50 [45] of the same compound?
**A.** 102 nM

**Q.** And the IC50 [46]?
**A.** 9.54 µM

**Q.** What about the IC50 [47] of the same compound?
**A.** 2430 nM

**Q.** And the IC50 [48]?
**A.** 1300 nM

**Q.** And the IC50 [49]?
**A.** 850 nM

**Q.** And the IC50 [50]?
**A.** > 16 µM

**Q.** What about the IC50 [51] of the same compound?
**A.** 85.6 nM

**Q.** What about the IC50 [52] of the same compound?
**A.** > 16 µM

**Q.** What about the IC50 [53] of the same compound?
**A.** 1240 nM

**Q.** What about the IC50 [54] of the same compound?
**A.** 114 nM

**Q.** And the IC50 [55]?
**A.** 953 nM

**Q.** What about the IC50 [56] of the same compound?
**A.** 1380 nM

**Q.** What about the IC50 [57] of the same compound?
**A.** 391 nM

**Q.** And the IC50 [58]?
**A.** 548 nM

**Q.** And the IC50 [59]?
**A.** 1280 nM

**Q.** And the IC50 [60]?
**A.** 844 nM

**Q.** What about the IC50 [61] of the same compound?
**A.** 3.28 µM

**Q.** And the IC50 [62]?
**A.** 2080 nM

**Q.** And the IC50 [63]?
**A.** 472 nM

**Q.** And the IC50 [64]?
**A.** > 16 µM

**Q.** And the IC50 [65]?
**A.** > 16 µM

**Q.** What about the IC50 [66] of the same compound?
**A.** > 16 µM
